Laboratory results as given in patent US6762185B1, “Compounds useful for treatment of cancer, compositions containing the same, and methods of their use” (Choongwae Pharma Corporation, priority 2002, dated 2004).

How the values were obtained:
caspase-3 = assay: Caspase-3 activation in SW480 cells (Cbz-DEVD-R110 substrate); assay type: cell-based; details: SW480 cells treated 24 hours, dose dependent
Procedure: FIG. 6. TCF4 compound induces caspase-3 activation in a dose-dependent manner. SW480 cells were treated with TCF4 compound for 24 hours. Whole cell protein extracts were prepared and 100 μg aliquots of protein extracts were incubated with Cbz-DEVD-R110 substrate for 2 hours at 37° C. Relative fluorescence unit (RFU) was obtained by subtracting the unit values of the blank control from the experimental measured values. SW480 cells were treated with TCF4 compound for 24 hours, collected and washed with PBS, and lysed in 100 μl ice cold hypotonic lysis buffer which is commercially available (Promega). 100 μg of the cell extracts were incubated in reaction buffer containing Cbz-DEVD-R110 (caspase-3 substrate: Promega) at 37° C. for 2 hours (FIG. 6). It is clear the FIG. 6 that caspase-3 activity was stimulated by the presence of the TCF4 compound, in a dose dependent manner.

survivin = assay: Survivin expression in SW480 cells (RT-PCR and Western blot); assay type: cell-based, human
Procedure: FIGS. 5A and 5B. Inhibition of survivin expression by TCF4 compound in […]. FIG. 5A. Surviving mRNA (363 bp) level was assessed by RT-PCR in SW480 cell 24 hours after incubation 25 μM TCF4 compound. β-actin mRNA (564 bp) level is shown as an internal control. FIG. 5B. Survivin protein (MW 16,500) level was assessed by Western blots in SW480 using anti-survivin monoclonal antibody after TCF4 incubation with compound for 48 hrs.
Total RNA was isolated from SW480 cells treated with the TCF4 compound using Rneasy midi kit (Qiagen, Valencia, Calif., 75142). One microgram of RNA was used as a template for RT-PCR. The expression of survivin was evaluated with RT-PCR and Western blot. The primer used to detect fragments of the survivin gene was designed from published human sequences (Cancer Res., 2001, 62, 8664-8667). The sequences used were 5′-[…]-3′ and 5′-[…]-3′, which can give an amplified product of 363 bp. The RT-PCR reaction was processed by Access RT-PCR system (Promega A1260). (FIG. 5) Survivin 6E4 Monoclonal antibody (Cell signaling Technology, 2802) was used for Western blot of TCF4 compound treated SW480 cells. (FIG. 5B).

CBP = target: T1, CBP (Homo sapiens, UniProt Q92793); assay: Binding of 14C-TCF4 compound to nuclear extracts of SW480 transfected with CBP or β-catenin; details: 14C-labelled compound, nuclear lysate of transfected SW480, 4° C., 18 hours
T1 construct: expressed in transfected cells; host or cells: SW480
Procedure: FIG. 3. […] SW480 cells were transiently transfected with β-catenin or CBP expression plasmid. 48 hours after transfection, nuclear protein extracts were collected. 14C-Tcf4 was incubated with nuclear lysate.
Nuclear protein extracts from SW480 transfected with CBP expression vector or wild type β-catenin expression vector were collected using NE-PER Nuclear and Cytoplasmic Extraction Reagents (Pierce) and incubated with ^14C-TCF4 compound at 4° C. for 18 hours. Each samples were washed with Sephadex G-25 columns equilibrated with 5 mL of PBB (20 mM HEPES, pH 7.9, 60 mM NaCl, 6 mM MgCl2, 0.5 mM EDTA, 0.1% NP-40, 20% glycerol, 5 mM 2-ME, 1 mM PMSF) and protein samples eluted by centrifugation were transferred to a scintillation vial containing 2 mL of scintillation fluid. Radio activities were counted using scintillation counter (Beckman).

SW480 cells [1] = assay: Bioassay for the measurement of IC50 against SW480 cells (TOPFlash/pRL-null luciferase); assay type: cell-based; details: Homo sapiens, 24 hrs treatment, firefly and renilla luciferase activities, read-out: IC50 against SW480 cell growth
Procedure: FIG. 8. Measurement of IC50 of TCF4 compound for SW480 cells. Cell growth inhibition on SW480 cells is measured at various concentrations of TCF4 compound in order to obtain the IC50 value. Specifically, the degree of inhibition in firefly and renilla luciferase activities by TCF4 compound was determined. […] Detailed procedures are the same as disclosed in Example 8.
SW480 cells were transfected with the usage of Superfect™ transfect reagent (Qiagen, 301307). Cells were trypsinized briefly 1 day before transfection and plated on 6 well plate (5×10^5 cells/well) so that they were 50-80% confluent on the day of transfection. Four microgram (TOPFlash) and one microgram (pRL-null) of DNAs were diluted in 150 μl of serum-free medium, and 30 μl of Superfect™ transfect reagent was added. The DNA-Superfect mixture was incubated at room temperature for 15 min, after that 1 ml of 10% FBS DMEM was added to this complex for an additional 3 hr of incubation. While complexes were forming, cells were washed with PBS twice without antibiotics. The DNA-Superfect™ transfect reagent complexes were applied to the cells before incubating at 37° C. at 5% CO2 for 3 h. After incubation, recovery medium with 10% FBS was added to bring the final volume to 1.18 ml. After 3 hr incubation, the cells were harvested and reseeded to 96 well plate (3×10^4 cells/well). […]

[2] = system: CBP-mediated transcriptional activation; assay: CBP-mediated transcriptional activation, pTOPFlash with CBP and/or β-catenin cotransfection in SW480 cells; assay type: cell-based; details: SW480 cells cotransfected with pTOPFlash
Procedure: FIG. 2. […] SW480 cells were cotransfected with 1.1 μg of the pTOPFlash reporter, and 0.8 μg […], in the presence or absence of TCF4 compound and CBP and/or β-catenin, which are present in various concentrations(1.1 to 3.3 μg), is shown to reverse the inhibiting action of TCF4 compound on CBP-mediated transcriptional activation.
In order to determine the inhibitory effect of TCF4 compound on CBP-mediated transcriptional activation, reporter plasmid pTOPFlash (1.1 μg), CBP expression vector (1.1 to 3.3 μg), wild type beta-catenin expression vector (1.1 to 3.3 μg) and pRL-null (0.8 μg) were cotransfected into SW480. Total amount of DNA was adjusted to 6.3 μg. After 24 hours incubation, TCF4 compound was added and cells were washed and luciferase activity was measured. Firefly luciferase activity was normalized to renilla luciferase activity (FIG. 2).

[3] = system: TCF4/β-catenin transcriptional pathway; assay: TCF4/β-catenin reporter gene assay (pTOPFlash luciferase) in SW480 cells; assay type: cell-based; details: 24 hours treatment, firefly normalized to renilla
Procedure: The compound having general formula (I) wherein R1 is 2-naphthyl and R2 is phenyl is used for this experiment (it is referred to as ‘TCF4 compound’ hereinafter). Each transfection was performed in duplicate and repeated at least three times. SW480 cells were transfected transiently with 4.0 μg firefly luciferase reporter plasmid (pTOPFlash) and 0.8 μg renilla luciferase reporter plasmid (pRL-null). Firefly luciferase activity was normalized to renilla luciferase activity.
SW480 cells were maintained in DMEM with 10% fetal bovine serum supplemented with non-essential amino acid and antibiotics. Transient transfections into SW480 cells were carried out by Superfect (Qiagen,301307). For TCF4/β-catenin reporter gene assay, 4 μg of pTOPFlash and 0.8 μg of pRL-null were cotransfected. After 24 hours of transfection, SW480 cells were treated with TCF4 compound at varying concentrations. Firefly luciferase and renilla luciferase activities were measured 24 hours after said TCF4 compound treatment, and the firefly luciferase activity was normalized to the renilla luciferase activity (FIG. 1).

SW480 cells [4] = assay: Combination with 5-FU tested against SW480 cell lines; assay type: cell-based
Procedure: It has been known from previous art that 5-FU [Fluorouracil; 5-fluoro-2,4(1H, 3H)-pyrimidinedione] can induce apoptosis in cultured oral cancer cells (D. Tong et al., Oral Oncology 36, 2000 236-241). Further, it is also known that colon cancer has a sensitivity to 5-FU (D. Arango et al., Cancer Research 61, 2001 4910-4915). In the present invention, therefore, the combination of 5-FU having established anti-cancer activity and the compounds of formula (I) of the present invention is prepared and tested against SW480 cell lines. […] Therefore, it is yet another aspect of the present invention to provide a method of treating cancer, which comprises administering to a subject a safe and effective amounts of the compound having formula (I) of claim 1 together with other anti-cancer agent such as 5-Fu.

SW480 cells [5] = assay: Soft agar cell growth and colony formation assay; assay type: cell-based; details: SW480 cells in soft agar, 8 days
Procedure: FIG. 7. Cell growth and colony formation assays. SW480 cells were treated with TCF4 compound. The resulting cells are placed in a soft agar plate and incubated at 37° C. in CO2 incubator for 8 days. Number of colonies were counted under microscope. Agar plates were prepared to contain 10% FBS, 2 mM L-glutamine, 0.1 mM non-essential amino acid, 1×pen/strep and 1.6% agarose for bottom layer and DMEM containing 10% FBS, 2 mM L-glutamine, 0.1 mM non-essential amino acid, 1×pen/strep for upper layer. TCF4 compound solution and upper layer solution containing agarose were mixed and SW480 cells were added and solidified. Plates were incubated 37° C. at CO2 incubator for 8 days after solidification at room temperature for 30 min and colonies were counted under microscope (FIG. 7).

T1 sequence (Q92793 whole entry): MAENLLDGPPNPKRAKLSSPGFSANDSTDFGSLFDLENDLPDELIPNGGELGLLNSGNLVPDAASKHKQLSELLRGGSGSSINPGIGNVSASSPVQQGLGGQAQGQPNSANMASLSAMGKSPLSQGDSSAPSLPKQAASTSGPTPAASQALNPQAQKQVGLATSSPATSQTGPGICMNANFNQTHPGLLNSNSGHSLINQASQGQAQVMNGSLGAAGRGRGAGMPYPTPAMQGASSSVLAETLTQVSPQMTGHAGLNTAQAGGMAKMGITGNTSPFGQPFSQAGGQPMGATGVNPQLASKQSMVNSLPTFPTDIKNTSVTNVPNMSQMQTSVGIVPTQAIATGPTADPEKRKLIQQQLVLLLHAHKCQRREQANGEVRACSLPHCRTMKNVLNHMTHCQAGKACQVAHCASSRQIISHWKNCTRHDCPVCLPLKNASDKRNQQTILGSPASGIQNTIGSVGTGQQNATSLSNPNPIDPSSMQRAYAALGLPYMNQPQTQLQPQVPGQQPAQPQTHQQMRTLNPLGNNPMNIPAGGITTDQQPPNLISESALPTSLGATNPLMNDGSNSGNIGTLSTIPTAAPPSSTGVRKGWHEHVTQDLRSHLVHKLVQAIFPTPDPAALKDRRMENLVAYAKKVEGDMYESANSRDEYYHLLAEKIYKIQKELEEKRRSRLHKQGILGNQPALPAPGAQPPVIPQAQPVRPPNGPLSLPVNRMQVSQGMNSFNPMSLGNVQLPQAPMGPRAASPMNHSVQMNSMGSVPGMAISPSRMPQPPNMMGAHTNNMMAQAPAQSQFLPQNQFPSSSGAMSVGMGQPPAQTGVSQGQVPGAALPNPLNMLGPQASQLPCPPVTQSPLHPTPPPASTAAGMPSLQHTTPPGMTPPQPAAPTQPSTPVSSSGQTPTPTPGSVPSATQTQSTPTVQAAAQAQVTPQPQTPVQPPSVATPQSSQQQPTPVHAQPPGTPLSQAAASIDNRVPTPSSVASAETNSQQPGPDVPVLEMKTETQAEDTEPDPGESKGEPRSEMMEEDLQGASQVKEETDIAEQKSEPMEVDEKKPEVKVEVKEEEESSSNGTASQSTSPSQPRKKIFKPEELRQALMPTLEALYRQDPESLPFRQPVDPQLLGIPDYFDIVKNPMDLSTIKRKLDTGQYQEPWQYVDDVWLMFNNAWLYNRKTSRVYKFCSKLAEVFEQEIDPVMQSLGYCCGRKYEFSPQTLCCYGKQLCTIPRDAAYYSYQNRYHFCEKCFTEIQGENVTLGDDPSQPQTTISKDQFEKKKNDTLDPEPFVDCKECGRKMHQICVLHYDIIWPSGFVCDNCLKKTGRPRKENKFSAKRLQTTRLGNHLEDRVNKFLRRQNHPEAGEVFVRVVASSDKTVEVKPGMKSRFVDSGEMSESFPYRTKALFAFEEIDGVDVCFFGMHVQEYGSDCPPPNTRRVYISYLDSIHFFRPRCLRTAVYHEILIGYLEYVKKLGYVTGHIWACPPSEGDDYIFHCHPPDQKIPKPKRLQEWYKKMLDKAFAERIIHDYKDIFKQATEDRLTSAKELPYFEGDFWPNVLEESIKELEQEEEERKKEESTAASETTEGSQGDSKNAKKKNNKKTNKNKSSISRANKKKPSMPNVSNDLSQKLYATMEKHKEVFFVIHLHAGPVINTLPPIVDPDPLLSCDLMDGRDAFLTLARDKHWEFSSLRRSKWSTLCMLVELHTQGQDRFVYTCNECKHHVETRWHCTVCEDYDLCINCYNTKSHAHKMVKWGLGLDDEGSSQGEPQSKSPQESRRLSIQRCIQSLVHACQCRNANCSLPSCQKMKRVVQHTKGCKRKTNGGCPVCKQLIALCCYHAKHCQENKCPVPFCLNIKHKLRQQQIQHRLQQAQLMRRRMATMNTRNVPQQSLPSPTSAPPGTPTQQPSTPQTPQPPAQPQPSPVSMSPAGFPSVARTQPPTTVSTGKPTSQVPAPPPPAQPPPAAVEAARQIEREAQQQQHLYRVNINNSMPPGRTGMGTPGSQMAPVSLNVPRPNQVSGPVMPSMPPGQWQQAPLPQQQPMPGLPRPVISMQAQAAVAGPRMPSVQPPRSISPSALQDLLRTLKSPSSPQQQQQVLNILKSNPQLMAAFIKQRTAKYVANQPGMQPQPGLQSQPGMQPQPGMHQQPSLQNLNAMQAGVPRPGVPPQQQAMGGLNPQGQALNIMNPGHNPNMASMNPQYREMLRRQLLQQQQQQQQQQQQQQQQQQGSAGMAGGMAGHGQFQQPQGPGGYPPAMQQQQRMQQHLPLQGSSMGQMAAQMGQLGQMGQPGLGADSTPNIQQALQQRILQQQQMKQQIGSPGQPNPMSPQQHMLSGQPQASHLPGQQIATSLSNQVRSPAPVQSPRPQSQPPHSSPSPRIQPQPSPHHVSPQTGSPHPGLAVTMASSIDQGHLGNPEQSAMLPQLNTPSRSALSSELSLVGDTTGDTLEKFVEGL

Which caspase-3 activity (caspase-3) does the source give for `O=C1[C@H](Cc2ccc(O)cc2)N2C(=O)CCN(C(=O)NCc3ccccc3)[C@H]2CN1Cc1cccc2ccccc12` [TCF4 compound, 6-(4-Hydroxy-benzyl)-8-naphthalen-1-ylmethyl-4-oxo-hexahydro-pyrazino[1,2-α]pyrimidine-1-carboxylic Acid Benzylamide] here?
The caspase-3 activity was “stimulated”.

And the “survivin mRNA expression level” value (survivin; RT-PCR, 25 μM, 24 hours)?
Its value is “Inhibits”.

And the “survivin protein expression level” value (survivin; Western blot, 48 hrs)?
Its value is “Inhibits”.

What about the “binding to CBP” value (CBP) of the same compound?
The value was “Specific binding”.

What about the IC50 (SW480 cells [1]) of the same compound?
The IC50 was ~8.07 µM.

And the CBP-mediated transcriptional activation [2]?
The CBP-mediated transcriptional activation was “inhibits CBP-mediated transcriptional activation”.

What about the “transcription of the TCF4 responsive reporter gene luciferase” value [3] of the same compound?
The value was “inhibits the transcription of the TCF4 responsive reporter gene luciferase in a dose-dependent manner”.

And the “inhibition of cancer cell growth in combination with 5-FU” value (SW480 cells [4])?
Its value is “remarkable effect for inhibiting cancer cell growth”.

What about the “cell growth and colony formation” value (SW480 cells [5]) of the same compound?
The value was “correlation between the dose of TCF4 compound and the inhibition of cell growth”.
